# Reference: patent US20260062447A1, “COMPOUNDS” (UNIVERSITY OF SOUTHAMPTON, priority 2022, published 2026)
# Where a SMILES comes first, the peptide text is derived from it. [ ]: non-standard residue; d: D form. Phe(4-CF3) = N[C@@H](Cc1ccc(C(F)(F)F)cc1)C(=O)O; Phe(4-Br) = N[C@@H](Cc1ccc(Br)cc1)C(=O)O; Nle = CCCC[C@H](N)C(=O)O
# Tests used:
# [1] = biological target: T1, His-HIF-1α PAS-B domain with FLAG-HIF-1β PAS-B domain (Homo sapiens, UniProt Q16665); test: ELISA of HIF-1α PAS-B / HIF-1β PAS-B heterodimerization; format: biochemical; conditions: read-out: IC50 of disruption of HIF-1α-HIF-1β PAS-B-PAS-B dimer formation
# T1 construct: heterodimerization of His-HIF-1α PAS-B domain with FLAG-HIF-1β PAS-B domain analysed by ELISA
# T1 sequence (Q16665 238-349 limits assumed): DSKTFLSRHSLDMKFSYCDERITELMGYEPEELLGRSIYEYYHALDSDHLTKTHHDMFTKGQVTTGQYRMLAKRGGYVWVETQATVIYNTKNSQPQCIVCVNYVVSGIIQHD
# Procedure: FIG. 9‥Effects of (CONC) CK-n-leu-F(CF3)IF(Br) [SEQ ID NO: 40 Cys lys NL phe(CF3) ile phe(Br)] on the heterodimerization of His-HIF-1α PAS-B domain with FLAG-HIF-1β PAS-B domain analysed by ELISA.
# The ability of CK-n-leu-F(CF3)IF(Br) to disrupt the HIF-1α-HIF-1β PAS-B-PAS-B PPI was then assessed via an ELISA assay.
# To each well of a clear Pierce nickel coated 96-well plate (Thermo Scientific), purified Hiss-HIF-1α PAS-B protein in HIP buffer was added (25 μL, 0.1 μM), the plate was then incubated for 1 hr at RT with rocking. The wells were then washed 2× with HIF buffer (150 μL) and 1× with PBS Tween (0.05% Tween 20, 150 μL). 2% milk in PBS Tween (150 μL) was then added to each well and incubated for 1 hr at RT with rocking as a blocking step. The wells were then washed 2×PBS Tween (150 μL) and 1× with HIF buffer (150 μL). For HIF-B dimerisation a serial dilution of HIF-1β PAS-B ranging from 250 μM to 11 nM in HIF buffer (100 μL) was then added. […] The plate was then incubated at RT for 1 hr with rocking. The wells were then washed 2× with HIF buffer (150 μL) and 1× with PBS Tween (150 μL), A 1:1000 dilution of mouse anti-flag antibody in 2% milk PBS Tween (50 μL) was then added to each well and the plate incubated for a further hour at RT with rocking. […] H2SO4(aq) (2 M, 100 μL) was then added to each well and the absorbance at 450 nm determined on a BMG Clariostar plate reader.
# [2] = Cytotox-Glo toxicity assay; format: cell-based; conditions: doses 50 uM
# [3] = test system: HIF-1 three-domain protein binding to FAM-HRE; test: Fluorescence polarization assay of HIF-1 binding to FAM-HRE; format: biochemical; conditions: for IC50: FP assay, read-out: IC50 of inhibition of HIF DNA (FAM-HRE) binding
# Procedure: (§1) HIF-1 three-domain protein was thawed on ice and diluted to 150 nM in HIF FP buffer. Compounds for analysis were serially diluted in DMSO to give 10× stocks. The compounds (10 μL, 100% DMSO) were then added to the protein (80 μL). The samples were then incubated at room temperature for 30 minutes. FAM-HRE (10 μL, 20 nM) was then added and the samples loaded into a 384 well solid black non-binding microplate (Corning, USA). The fluorescence polarization of each well was then measured using gain and focus settings optimized by the used software set to a signal of 400 mP on a control well.
# An FP assay utilizing a FAM labelled HRE was used and CK-NL-F(CF3)IF(Br) assessed.
# as §1, with “compounds (10 μl, 100% DMSO)” for “compounds (10 μL, 100% DMSO)”
# [4] = test system: HIF-1a driven transcription in Panc HRE readout cell line; test: Panc HRE readout cell line (EYFP expression); format: cell-based
# HIF-1α PAS-B domain = HIF-1α PAS-B domain (Homo sapiens, UniProt Q16665); test: Microscale thermophoresis (MST) binding to HIF-1α PAS-B domain; conditions: for binding affinity by MST, in words: compared within the derivative series or to the unsubstituted peptide
# Sequence of HIF-1α PAS-B domain (Q16665 238-349 limits assumed): as above
# Procedure: The impact of these substitutions on the binding affinity was then assessed by MST.
# An aliquot of labelled HIF-1α PAS-B was thawed on ice and diluted to 50 nM with HIF MST assay buffer, before being centrifuged at 12,000 rpm for 15 minutes. […] Samples were loaded into NanoTemper® Monolith NT.115 premium treated capillaries and measurements were carried out using a Monolith NT.115 system at 25° C. using 50% MST power and 50% LED power. Data was analysed by NanoTemper® analysis software. Binding curves were fitted using GraphPad Prism 8 software.
# [5] = test system: HIF-1a driven transcription in U2OS HRE readout cell line; test: U2OS HRE readout assay (EYFP expression); format: cell-based
# HeLa cells = test: Cell internalization of the fluorescent peptide, PMT detection at 405 nm; format: cell-based
# From the text: (§2) FIG. 11—A) Structure of cyclic peptide that incorporates a coumaryl motif at the phenylalanine position CLL-Cou-VY [SEQ ID NO: 39 Cys leu leu cou val tyr]. B) MST analysis of CLL-Cou-VY. C) The peptide was seen to be internalized in HeLa cells upon visualization with PMT detection at 405 nm. […] E) HIF-1α immunofluorescence under control conditions showing that without treatment HIF-1a localizes to the nucleus.
# We therefore made a peptide with a coumaryl motif incorporated at the phenylalanine position the compound, CLL-Cou-VY, shown in FIG. 11 was seen to be internalized in HeLa cells upon visualization with PMT detection at 405 nm.
# [6] = test system: HIF-1α nuclear localization; test: HIF-1α immunofluorescence (nuclear localization); format: cell-based
# From the text: as §2
# [7] = biological target: T2, HIF-1α PAS-B domain mutant C255A (Homo sapiens, UniProt Q16665, C255A); test: MST binding to cysteine mutant HIF-1α PAS-B C255A; conditions: site-directed mutagenesis
# T2 construct: made in house
# T2 sequence (Q16665 238-349 C255A limits assumed): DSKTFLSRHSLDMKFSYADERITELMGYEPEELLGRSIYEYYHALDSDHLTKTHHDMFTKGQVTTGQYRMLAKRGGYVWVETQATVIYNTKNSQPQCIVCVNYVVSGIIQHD
# Procedure: (§3) One rationalization would be that the peptide binding is disulphide-mediated. Whilst this was thought to be unlikely as all assays were performed in the presence of the reducing agent TCEP, it was decided that the possibility would be further investigated via site-directed mutagenesis (SDM). The three cysteine residues within the HIF-1α PAS-B domain were sequentially mutated to alanine. The affinity of cyclo-CLLFVY for the resultant mutant proteins C255A, C344A and C337A was then assessed by MST.
# (§4) An aliquot of labelled HIF-1α PAS-B was thawed on ice and diluted to 50 nM with HIF MST assay buffer, before being centrifuged at 12,000 rpm for 15 minutes. The compound was then serially diluted in DMSO to give 10× stocks. These were then diluted 1:5 in HIF MST assay buffer to give 2× stocks, before finally being mixed 1:1 (v/v) with the labelled protein to give a final concertation of 25 nM protein and a final DMSO content of 10%. Samples were loaded into NanoTemper® Monolith NT.115 premium treated capillaries and measurements were carried out using a Monolith NT.115 system at 25° C. using 50% MST power and 50% LED power. Data was analysed by NanoTemper® analysis software. Binding curves were fitted using GraphPad Prism 8 software.
# [8] = test system: HIF-1α PAS-B domain mutant C344A; test: MST binding to cysteine mutant HIF-1α PAS-B C344A; conditions: site-directed mutagenesis
# Procedure: as §3, §4
# [9] = biological target: T3, HIF-1α PAS-B domain mutant C337A (Homo sapiens, UniProt Q16665, C337A); test: MST binding to cysteine mutant HIF-1α PAS-B C337A; conditions: site-directed mutagenesis
# T3 construct: made in house
# T3 sequence (Q16665 238-349 C337A limits assumed): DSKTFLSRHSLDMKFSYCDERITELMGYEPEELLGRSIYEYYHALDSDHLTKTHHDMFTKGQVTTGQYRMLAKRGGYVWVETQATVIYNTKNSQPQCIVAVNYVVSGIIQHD
# Procedure: as §3, §4
structure (smiles),measurement,setting,value
"CCCC[C@@H]1NC(=O)[C@H](CCCCN)NC(=O)[C@H](CS)NC(=O)[C@H](Cc2ccc(Br)cc2)NC(=O)[C@H]([C@@H](C)CC)NC(=O)[C@H](Cc2ccc(C(F)(F)F)cc2)NC1=O [CK-n-leu-F(CF3)IF(Br), Cys lys n-leu phe(CF3) ile phe(4-Br)] (cyclo(CK[Nle][Phe(4-CF3)]I[Phe(4-Br)]))",IC50,[1],27.7 ± 14 µM
same,toxicity,[2],not toxic
same,compatibility with FP assay / direct binding to FAM-HRE,[3]; peptide itself with FAM labelled HRE,bind to the FAM-HRE directly
same,expression of EYFP,[4],inhibited the expression of EYFP
same,Kd,"HIF-1α PAS-B domain; MST, HIF-1α PAS-B domain",1660 ± 300 nM
"CCCC[C@@H]1NC(=O)[C@H](CC(C)C)NC(=O)[C@H](CS)NC(=O)[C@H](Cc2ccc(Br)cc2)NC(=O)[C@H]([C@@H](C)CC)NC(=O)[C@H](Cc2ccc(O)cc2)NC1=O [CL-n-leu-F(CF3)IF(Br), Cys leu n-leu phe(CF3) ile phe(4-Br)] (cyclo(CL[Nle]YI[Phe(4-Br)]))",expression of EYFP,[5],inhibited the expression of EYFP
"CC(C)C[C@@H]1NC(=O)[C@H](CS)NC(=O)[C@H](Cc2ccc(O)cc2)NC(=O)[C@H](C(C)C)NC(=O)[C@H](CCc2cc(=O)oc3cc(O)ccc23)NC(=O)[C@H](CC(C)C)NC1=O [CLL-Cou-VY, Cys Leu Leu Cou Val Tyr]",internalization in cells,HeLa cells,internalized
same,effect on HIF-1α nuclear localization,[6],preventing HIF-1α nuclear localization
"CC(C)C[C@@H]1NC(=O)[C@H](CS)NC(=O)[C@H](Cc2ccc(Br)cc2)NC(=O)[C@H](C(C)C)NC(=O)[C@H](Cc2ccc(C(F)(F)F)cc2)NC(=O)[C@H](CC(C)C)NC1=O [CLLF(CF3)IF(Br), Cys leu leu phe(CF3) ile phe(4-Br)]",IC50,[3],11.8 ± 1.1 µM
same,"binding affinity by MST, in words",HIF-1α PAS-B domain,best affinity
"CC(C)C[C@@H]1NC(=O)[C@H](CS)NC(=O)[C@H](Cc2ccc(O)cc2)NC(=O)[C@H](C(C)C)NC(=O)[C@H](Cc2ccccc2)NC(=O)[C@H](CC(C)C)NC1=O [CLLFVY, Cys leu leu phe val tyr]",binding activity for mutant protein C255A,[7],binding activity is retained
same,IC50,[3],76.5 ± 8 µM
same,binding activity for mutant protein C344A,[8],binding activity is retained
same,binding activity for mutant protein C337A,[9],binding activity is retained
"CC(C)C[C@@H]1NC(=O)[C@H](CC(C)C)NC(=O)[C@@H](CS)NC(=O)[C@H](Cc2ccc(O)cc2)NC(=O)[C@H](C(C)C)NC(=O)[C@H](Cc2ccccc2)NC1=O [D-cysteine, d-cys leu leu phe val tyr]","binding affinity by MST, in words",HIF-1α PAS-B domain,comparable affinities
"CC(C)C[C@@H]1NC(=O)[C@H](CS)NC(=O)[C@H](Cc2ccc(O)cc2)NC(=O)[C@H](C(C)C)NC(=O)[C@H](Cc2ccc3ccccc3c2)NC(=O)[C@H](CC(C)C)NC1=O [Nal, Cys leu leu Nal val tyr]",fold improvement in affinity compared to the parent peptide CLLFVY,HIF-1α PAS-B domain; MST Kd relative to CLLFVY,6 fold
"NC(CCS)C(=O)O (centres unmarked) [homocysteine, h-cys leu leu phe val tyr]","binding affinity by MST, in words",HIF-1α PAS-B domain,comparable affinities
